Where two headings read alike, the source gives them in different places.
Test system: AsPC-1 cells
Test: Cell proliferation assay, chemodrug + ATR inhibitor (Incucyte confluence, 72 h);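 further: underlying read-out for every value is AsPC-1 confluence after 72 h incubation at 37 °C and 5% CO2, divided by that well's starting confluence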
Details: for EC50: Homo sapiens
Description: Cells were seeded at 5000 cells/well into 96-well flat bottom plates (Eppendorf) and allowed to attach overnight. […] Cells were incubated for 72 h at 37 °C and 5% CO2. Cell confluence readouts at 72 h were either normalized to their initial confluence using the Incucyte software (AsPC-1) or used without prior normalization (all others). […] Each experiment was performed in triplicates, the data was plotted as mean ± standard deviation (s.d.).

Structure (SMILES): Nc1ccn([C@@H]2O[C@H](CO)[C@@H](O)C2(F)F)c(=O)n1 [GEM, Gemcitabine]
- Raw data (confluence at 72 h/confluence at 0 h) (Experiment (ATRi) Elimusertib, replicate R1, drug dose (titrated) 30 nM): 2.54
- Raw data (confluence at 72 h/confluence at 0 h) (Experiment (ATRi) Elimusertib, replicate R1, drug dose (titrated) 100 nM): 1.97
- Raw data (confluence at 72 h/confluence at 0 h) (Experiment (ATRi) Elimusertib, replicate R1, drug dose (titrated) 1000 nM): 1.56
- Raw data (confluence at 72 h/confluence at 0 h) (Experiment (ATRi) Elimusertib, replicate R1, drug dose (titrated) 3000 nM): 1.44
- Raw data (confluence at 72 h/confluence at 0 h) (Experiment (ATRi) Elimusertib, replicate R2, drug dose (titrated) 1 nM): 3.86
- Raw data (confluence at 72 h/confluence at 0 h) (Experiment (ATRi) Elimusertib, replicate R2, drug dose (titrated) 3 nM): 3.95
- Raw data (confluence at 72 h/confluence at 0 h) (Experiment (ATRi) Elimusertib, replicate R2, drug dose (titrated) 10 nM): 3.59
- Raw data (confluence at 72 h/confluence at 0 h) (Experiment (ATRi) Elimusertib, replicate R2, drug dose (titrated) 30 nM): 3.07
- Raw data (confluence at 72 h/confluence at 0 h) (Experiment (ATRi) Elimusertib, replicate R2, drug dose (titrated) 100 nM): 2.33
- Raw data (confluence at 72 h/confluence at 0 h) (Experiment (ATRi) Elimusertib, replicate R3, drug dose (titrated) 1 nM): 3.76
- Raw data (confluence at 72 h/confluence at 0 h) (Experiment (ATRi) Elimusertib, replicate R3, drug dose (titrated) 3 nM): 3.85
- Raw data (confluence at 72 h/confluence at 0 h) (Experiment (ATRi) Elimusertib, replicate R3, drug dose (titrated) 10 nM): 3.75
- Raw data (confluence at 72 h/confluence at 0 h) (Experiment (ATRi) Elimusertib, replicate R3, drug dose (titrated) 30 nM): 3.15
- Raw data (confluence at 72 h/confluence at 0 h) (Experiment (ATRi) Elimusertib, replicate R3, drug dose (titrated) 100 nM): 2.28
- Raw data (confluence at 72 h/confluence at 0 h) (Experiment (ATRi) Gartisertib, replicate R1, drug dose (titrated) 1 nM): 3.28
- Raw data (confluence at 72 h/confluence at 0 h) (Experiment (ATRi) Gartisertib, replicate R1, drug dose (titrated) 3 nM): 3.04
- Raw data (confluence at 72 h/confluence at 0 h) (Experiment (ATRi) Gartisertib, replicate R1, drug dose (titrated) 10 nM): 2.71
- Raw data (confluence at 72 h/confluence at 0 h) (Experiment (ATRi) Gartisertib, replicate R1, drug dose (titrated) 30 nM): 2.57
- Raw data (confluence at 72 h/confluence at 0 h) (Experiment (ATRi) Gartisertib, replicate R1, drug dose (titrated) 100 nM): 2.04
- Raw data (confluence at 72 h/confluence at 0 h) (Experiment (ATRi) Gartisertib, replicate R1, drug dose (titrated) 300 nM): 1.92
- Raw data (confluence at 72 h/confluence at 0 h) (Gartisertib experiment, replicate R2, titrated drug dose 1 nM): 4.01
- Raw data (confluence at 72 h/confluence at 0 h) (Gartisertib experiment, replicate R2, titrated drug dose 3 nM): 4.05
- Raw data (confluence at 72 h/confluence at 0 h) (Gartisertib experiment, replicate R2, titrated drug dose 10 nM): 3.93
- Raw data (confluence at 72 h/confluence at 0 h) (Gartisertib experiment, replicate R2, titrated drug dose 30 nM): 3.32
- Raw data (confluence at 72 h/confluence at 0 h) (Gartisertib experiment, replicate R2, titrated drug dose 100 nM): 2.49
- Raw data (confluence at 72 h/confluence at 0 h) (Gartisertib experiment, replicate R2, titrated drug dose 300 nM): 2.07
- Raw data (confluence at 72 h/confluence at 0 h) (Gartisertib experiment, replicate R2, titrated drug dose 1000 nM): 1.91
- Raw data (confluence at 72 h/confluence at 0 h) (Gartisertib experiment, replicate R2, titrated drug dose 3000 nM): 1.89
- Raw data (confluence at 72 h/confluence at 0 h) (Gartisertib experiment, replicate R3, titrated drug dose 1 nM): 4.16
- Raw data (confluence at 72 h/confluence at 0 h) (Gartisertib experiment, replicate R3, titrated drug dose 3 nM): 3.98
- Raw data (confluence at 72 h/confluence at 0 h) (Gartisertib experiment, replicate R3, titrated drug dose 10 nM): 3.74
- Raw data (confluence at 72 h/confluence at 0 h) (Gartisertib experiment, replicate R3, titrated drug dose 30 nM): 3.24
- Raw data (confluence at 72 h/confluence at 0 h) (Gartisertib experiment, replicate R3, titrated drug dose 100 nM): 2.56
- Raw data (confluence at 72 h/confluence at 0 h) (Gartisertib experiment, replicate R3, titrated drug dose 300 nM): 2.02
- EC50 (ASPC1, 72 h, AsPC1, Experiment GEM (Gemcitabine alone) in the Berzosertib series, single replicates R1-R3): 34.6 nM
- EC50 (ASPC1, 72 h, AsPC1, Experiment GEM (Gemcitabine alone) in the Ceralasertib series, single replicates R1-R3): 42.6 nM
- EC50 (ASPC1, 72 h, AsPC1, Experiment GEM (Gemcitabine alone) in the Elimusertib series, single replicates R1-R3): 42.4 nM
- EC50 (ASPC1, 72 h, AsPC1, Experiment GEM (Gemcitabine alone) in the Gartisertib series, single replicates R1-R3): 34.1 nM
- EC50 (ASPC1, 72 h, read-out: EC50 (cell growth), GEM alone, mean of four experiments): 45 nM
- EC50 (ASPC1, 72 h, read-out: EC50 mean [nM], AsPC1, Experiment GEM alone in the Berzosertib series, mean of replicates): 40.5 nM
- EC50 (ASPC1, 72 h, read-out: EC50 mean [nM], AsPC1, Experiment GEM alone in the Ceralasertib series, mean of replicates): 45.5 nM
- EC50 (ASPC1, 72 h, read-out: EC50 mean [nM], AsPC1, Experiment GEM alone in the Elimusertib series, mean of replicates): 44.4 nM
- EC50 (ASPC1, 72 h, read-out: EC50 mean [nM], AsPC1, Experiment GEM alone in the Gartisertib series, mean of replicates): 46 nM
- EC50 (ASPC1, 72 h, read-out: pEC50, AsPC1 (converted), Experiment GEM (Gemcitabine alone) in the Berzosertib series, single replicates R1-R3): 34.7 nM
- EC50 (ASPC1, 72 h, read-out: pEC50, AsPC1 (converted), Experiment GEM (Gemcitabine alone) in the Ceralasertib series, single replicates R1-R3): 42.7 nM
- EC50 (ASPC1, 72 h, read-out: pEC50, AsPC1 (converted), Experiment GEM (Gemcitabine alone) in the Elimusertib series, single replicates R1-R3): 42.7 nM
- EC50 (ASPC1, 72 h, read-out: pEC50, AsPC1 (converted), Experiment GEM (Gemcitabine alone) in the Gartisertib series, single replicates R1-R3): 33.9 nM
- EC50 (ASPC1, read-out: EC50 mean [nM], AsPC1, Experiment GEM alone in the Berzosertib series, mean of replicates): 40.5 nM
- EC50 (ASPC1, read-out: EC50 mean [nM], AsPC1, Experiment GEM alone in the Ceralasertib series, mean of replicates): 45.5 nM
- EC50 (ASPC1, read-out: EC50 mean [nM], AsPC1, Experiment GEM alone in the Elimusertib series, mean of replicates): 44.4 nM
- EC50 (ASPC1, read-out: EC50 mean [nM], AsPC1, Experiment GEM alone in the Gartisertib series, mean of replicates): 46 nM
- EC50 (ASPC1, read-out: EC50 mean, GEM alone, Berzosertib experiment): 40.5 nM
- EC50 (ASPC1, read-out: EC50 mean, GEM alone, Ceralasertib experiment): 45.5 nM
- EC50 (ASPC1, read-out: EC50 mean, GEM alone, Elimusertib experiment): 44.4 nM
- EC50 (ASPC1, read-out: EC50 mean, GEM alone, Gartisertib experiment): 46 nM
- Raw data (confluence at 72 h/confluence at 0 h) (titrated drug dose 10 nM, replicate R3, experiment (ATRi) Ceralasertib, AsPC-1, 72 h): 3.37
- Raw data (confluence at 72 h/confluence at 0 h) (titrated drug dose 30 nM, replicate R3, experiment (ATRi) Ceralasertib, AsPC-1, 72 h): 2.93
- Raw data (confluence at 72 h/confluence at 0 h) (titrated drug dose 1000 nM, replicate R3, experiment (ATRi) Ceralasertib, AsPC-1, 72 h): 1.56

From publication PMC11876601 (Molecular Systems Biology, 2025)
